Reference: ChEMBL document CHEMBL5154740, “Novel Aurora A and Protein Kinase C (α, β1, β2, and θ) Multitarget Inhibitors: Impact of Selenium Atoms on the Potency and Selectivity” (J Med Chem, 2022)

How the values were obtained:
[1] = target: RAC-alpha serine/threonine-protein kinase (Homo sapiens) (UniProt P31749); assay: Inhibition of AKT1 (unknown origin) at 50 nM by Z'LYTE screening method relative to control
[2] = target: Tyrosine-protein kinase ABL1 (Homo sapiens) (UniProt P00519); assay: Inhibition of ABL1 (unknown origin) at 50 nM by Z'LYTE screening method relative to control
Chain of Tyrosine-protein kinase ABL1 (Homo sapiens) (P00519 whole entry): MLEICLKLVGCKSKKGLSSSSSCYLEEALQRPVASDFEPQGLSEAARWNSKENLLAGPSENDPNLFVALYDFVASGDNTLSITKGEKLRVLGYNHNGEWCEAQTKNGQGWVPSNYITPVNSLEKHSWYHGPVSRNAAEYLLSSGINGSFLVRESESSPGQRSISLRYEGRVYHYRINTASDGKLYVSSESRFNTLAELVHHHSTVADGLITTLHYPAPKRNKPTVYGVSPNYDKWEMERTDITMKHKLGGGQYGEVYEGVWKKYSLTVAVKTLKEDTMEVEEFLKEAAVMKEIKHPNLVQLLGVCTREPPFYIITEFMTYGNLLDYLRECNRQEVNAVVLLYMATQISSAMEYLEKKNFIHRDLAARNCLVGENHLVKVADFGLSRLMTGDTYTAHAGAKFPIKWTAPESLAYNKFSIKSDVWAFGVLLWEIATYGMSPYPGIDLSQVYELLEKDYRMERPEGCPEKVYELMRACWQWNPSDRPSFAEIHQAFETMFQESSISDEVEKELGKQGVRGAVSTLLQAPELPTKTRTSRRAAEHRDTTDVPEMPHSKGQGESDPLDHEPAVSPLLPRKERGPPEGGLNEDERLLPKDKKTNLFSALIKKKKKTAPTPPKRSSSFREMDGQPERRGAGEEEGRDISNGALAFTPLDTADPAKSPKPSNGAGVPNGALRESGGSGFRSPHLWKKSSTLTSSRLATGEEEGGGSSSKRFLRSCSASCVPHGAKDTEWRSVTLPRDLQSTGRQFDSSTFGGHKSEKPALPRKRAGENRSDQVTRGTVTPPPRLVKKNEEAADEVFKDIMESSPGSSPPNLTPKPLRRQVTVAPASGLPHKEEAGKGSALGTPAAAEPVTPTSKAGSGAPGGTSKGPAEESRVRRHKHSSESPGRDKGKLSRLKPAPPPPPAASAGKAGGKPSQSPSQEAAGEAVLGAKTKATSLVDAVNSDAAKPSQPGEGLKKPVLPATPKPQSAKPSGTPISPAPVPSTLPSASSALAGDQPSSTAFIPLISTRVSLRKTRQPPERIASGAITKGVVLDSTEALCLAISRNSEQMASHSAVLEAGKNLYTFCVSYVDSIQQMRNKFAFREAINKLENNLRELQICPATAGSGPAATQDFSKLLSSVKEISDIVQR

[3] = target: T1, Aurora kinase A (Homo sapiens) (UniProt O14965); assay: Inhibition of AURA (unknown origin) at 50 nM by Z'LYTE screening method relative to control
T1 sequence (whole entry): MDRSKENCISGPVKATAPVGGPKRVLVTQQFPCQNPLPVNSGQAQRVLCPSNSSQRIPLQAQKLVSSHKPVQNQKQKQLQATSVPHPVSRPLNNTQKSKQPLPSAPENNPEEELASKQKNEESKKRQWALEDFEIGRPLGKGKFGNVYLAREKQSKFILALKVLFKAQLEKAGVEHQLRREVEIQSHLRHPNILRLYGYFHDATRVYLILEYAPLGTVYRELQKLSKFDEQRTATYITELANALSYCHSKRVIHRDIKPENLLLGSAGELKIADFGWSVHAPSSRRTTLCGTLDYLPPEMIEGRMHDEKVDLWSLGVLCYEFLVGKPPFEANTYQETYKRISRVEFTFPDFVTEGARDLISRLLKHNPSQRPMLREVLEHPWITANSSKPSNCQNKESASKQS

[4] = target: Cell division control protein 42 homolog (Homo sapiens) (UniProt P60953); assay: Inhibition of CDC42 delta (unknown origin) at 50 nM by Z'LYTE screening method relative to control
Chain of Cell division control protein 42 homolog (Homo sapiens) (P60953 whole entry, looked up): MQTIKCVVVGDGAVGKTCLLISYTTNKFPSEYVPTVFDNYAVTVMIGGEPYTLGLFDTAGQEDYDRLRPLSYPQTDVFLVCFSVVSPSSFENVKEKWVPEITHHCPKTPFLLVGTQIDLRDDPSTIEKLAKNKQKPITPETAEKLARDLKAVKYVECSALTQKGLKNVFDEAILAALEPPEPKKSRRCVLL

[5] = target: DNA-dependent protein kinase catalytic subunit (Homo sapiens) (UniProt P78527); assay: Inhibition of DNA-PK (unknown origin) at 50 nM by Z'LYTE screening method relative to control
[6] = target: T2, Eukaryotic elongation factor 2 kinase (Homo sapiens) (UniProt O00418); assay: Inhibition of EEF2K (unknown origin) at 50 nM by Z'LYTE screening method relative to control
T2 sequence (whole entry): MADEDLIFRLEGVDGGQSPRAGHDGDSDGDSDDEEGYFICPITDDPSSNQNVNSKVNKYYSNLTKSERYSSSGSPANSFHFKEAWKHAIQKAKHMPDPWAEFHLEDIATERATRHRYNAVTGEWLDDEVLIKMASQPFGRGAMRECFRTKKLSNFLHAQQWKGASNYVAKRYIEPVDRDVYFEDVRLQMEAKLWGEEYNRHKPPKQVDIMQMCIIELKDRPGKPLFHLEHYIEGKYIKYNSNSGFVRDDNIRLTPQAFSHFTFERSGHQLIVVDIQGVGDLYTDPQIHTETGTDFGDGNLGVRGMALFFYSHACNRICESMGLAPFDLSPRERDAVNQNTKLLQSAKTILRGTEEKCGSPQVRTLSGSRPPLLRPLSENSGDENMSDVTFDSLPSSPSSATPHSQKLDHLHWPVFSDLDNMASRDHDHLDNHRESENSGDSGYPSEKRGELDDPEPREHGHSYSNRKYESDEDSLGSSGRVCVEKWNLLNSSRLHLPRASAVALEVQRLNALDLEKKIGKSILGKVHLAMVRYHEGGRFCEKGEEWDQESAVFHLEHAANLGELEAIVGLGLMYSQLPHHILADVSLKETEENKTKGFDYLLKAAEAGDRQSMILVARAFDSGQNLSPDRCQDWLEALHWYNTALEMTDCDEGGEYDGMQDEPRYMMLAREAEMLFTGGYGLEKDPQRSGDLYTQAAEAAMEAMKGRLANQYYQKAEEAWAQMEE

[7] = target: Serine/threonine-protein kinase mTOR (Homo sapiens) (UniProt P42345); assay: Inhibition of FRAP1 (unknown origin) at 50 nM by Z'LYTE screening method relative to control
[8] = target: Dual specificity mitogen-activated protein kinase kinase 1 (Homo sapiens) (UniProt Q02750); assay: Inhibition of MAP2K1 (unknown origin) at 50 nM by Z'LYTE screening method relative to control
Chain of Dual specificity mitogen-activated protein kinase kinase 1 (Homo sapiens) (Q02750 whole entry): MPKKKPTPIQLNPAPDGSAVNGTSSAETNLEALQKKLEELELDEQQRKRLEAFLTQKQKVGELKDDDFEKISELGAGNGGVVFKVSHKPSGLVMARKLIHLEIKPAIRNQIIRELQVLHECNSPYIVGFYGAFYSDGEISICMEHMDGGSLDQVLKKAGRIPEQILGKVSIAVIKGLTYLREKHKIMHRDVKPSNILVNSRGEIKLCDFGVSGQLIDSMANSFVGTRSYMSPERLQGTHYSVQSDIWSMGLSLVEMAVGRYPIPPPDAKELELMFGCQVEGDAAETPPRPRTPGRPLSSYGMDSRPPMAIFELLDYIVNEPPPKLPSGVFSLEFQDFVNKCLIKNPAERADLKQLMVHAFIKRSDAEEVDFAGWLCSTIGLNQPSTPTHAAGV

[9] = target: Mitogen-activated protein kinase 1 (Homo sapiens) (UniProt P28482); assay: Inhibition of MAPK1 (unknown origin) at 50 nM by Z'LYTE screening method relative to control
Chain of Mitogen-activated protein kinase 1 (Homo sapiens) (P28482 whole entry): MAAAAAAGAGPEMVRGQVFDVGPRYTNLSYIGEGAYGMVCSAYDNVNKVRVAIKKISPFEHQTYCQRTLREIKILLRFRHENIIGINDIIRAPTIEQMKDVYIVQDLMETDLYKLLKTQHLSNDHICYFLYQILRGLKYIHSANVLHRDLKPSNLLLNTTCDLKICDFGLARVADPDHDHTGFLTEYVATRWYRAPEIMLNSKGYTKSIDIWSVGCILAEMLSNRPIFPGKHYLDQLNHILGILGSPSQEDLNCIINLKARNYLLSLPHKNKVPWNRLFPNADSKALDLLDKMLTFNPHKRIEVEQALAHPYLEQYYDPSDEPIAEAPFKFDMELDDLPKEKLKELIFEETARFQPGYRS

[10] = target: Protein kinase C beta type (Homo sapiens) (UniProt P05771); assay: Inhibition of PKCbeta2 (unknown origin) at 50 nM by Z'LYTE screening method relative to control
Chain of Protein kinase C beta type (Homo sapiens) (P05771 2-671 limits assumed): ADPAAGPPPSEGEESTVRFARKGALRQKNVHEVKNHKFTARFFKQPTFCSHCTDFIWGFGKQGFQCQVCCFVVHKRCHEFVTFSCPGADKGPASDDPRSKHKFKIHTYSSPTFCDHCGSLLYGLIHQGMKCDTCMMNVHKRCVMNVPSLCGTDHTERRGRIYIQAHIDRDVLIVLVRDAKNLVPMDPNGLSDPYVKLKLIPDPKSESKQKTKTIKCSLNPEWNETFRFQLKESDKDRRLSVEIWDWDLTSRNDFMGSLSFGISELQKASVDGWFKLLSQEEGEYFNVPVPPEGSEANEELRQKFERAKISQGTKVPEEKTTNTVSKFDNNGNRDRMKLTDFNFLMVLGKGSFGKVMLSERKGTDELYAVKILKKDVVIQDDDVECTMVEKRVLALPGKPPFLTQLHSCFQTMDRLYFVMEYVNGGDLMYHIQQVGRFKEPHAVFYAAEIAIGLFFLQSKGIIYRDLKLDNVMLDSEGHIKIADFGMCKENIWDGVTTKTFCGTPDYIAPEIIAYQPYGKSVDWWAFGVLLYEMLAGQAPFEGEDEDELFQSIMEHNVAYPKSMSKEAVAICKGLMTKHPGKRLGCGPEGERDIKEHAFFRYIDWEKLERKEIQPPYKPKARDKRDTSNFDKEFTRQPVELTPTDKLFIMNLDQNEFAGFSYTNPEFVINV

[11] = target: Protein kinase C eta type (Homo sapiens, UniProt P24723); assay: Inhibition of PKCeta (unknown origin) at 50 nM by Z'LYTE screening method relative to control
Chain of Protein kinase C eta type (P24723 whole entry): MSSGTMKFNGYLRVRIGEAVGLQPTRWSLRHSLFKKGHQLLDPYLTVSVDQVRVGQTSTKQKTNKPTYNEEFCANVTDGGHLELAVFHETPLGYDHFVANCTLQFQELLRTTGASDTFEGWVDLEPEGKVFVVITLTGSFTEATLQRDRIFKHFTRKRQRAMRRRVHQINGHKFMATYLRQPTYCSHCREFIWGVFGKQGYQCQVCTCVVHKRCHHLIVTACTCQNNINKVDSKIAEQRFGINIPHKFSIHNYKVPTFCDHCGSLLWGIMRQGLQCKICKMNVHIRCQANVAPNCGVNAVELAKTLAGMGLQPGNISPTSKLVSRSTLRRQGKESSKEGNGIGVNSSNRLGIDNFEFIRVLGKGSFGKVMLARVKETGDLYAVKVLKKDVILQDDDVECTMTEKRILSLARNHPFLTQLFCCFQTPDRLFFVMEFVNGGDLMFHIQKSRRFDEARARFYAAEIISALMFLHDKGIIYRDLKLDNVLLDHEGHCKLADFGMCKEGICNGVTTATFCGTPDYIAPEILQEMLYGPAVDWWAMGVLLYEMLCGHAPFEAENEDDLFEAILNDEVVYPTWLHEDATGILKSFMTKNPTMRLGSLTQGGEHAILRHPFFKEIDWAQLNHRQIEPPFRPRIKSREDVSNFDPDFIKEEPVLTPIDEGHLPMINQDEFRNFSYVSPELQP

[12] = target: T3, Serine/threonine-protein kinase D3 (Homo sapiens) (UniProt O94806); assay: Inhibition of PKCnu (unknown origin) at 50 nM by Z'LYTE screening method relative to control
T3 sequence (whole entry): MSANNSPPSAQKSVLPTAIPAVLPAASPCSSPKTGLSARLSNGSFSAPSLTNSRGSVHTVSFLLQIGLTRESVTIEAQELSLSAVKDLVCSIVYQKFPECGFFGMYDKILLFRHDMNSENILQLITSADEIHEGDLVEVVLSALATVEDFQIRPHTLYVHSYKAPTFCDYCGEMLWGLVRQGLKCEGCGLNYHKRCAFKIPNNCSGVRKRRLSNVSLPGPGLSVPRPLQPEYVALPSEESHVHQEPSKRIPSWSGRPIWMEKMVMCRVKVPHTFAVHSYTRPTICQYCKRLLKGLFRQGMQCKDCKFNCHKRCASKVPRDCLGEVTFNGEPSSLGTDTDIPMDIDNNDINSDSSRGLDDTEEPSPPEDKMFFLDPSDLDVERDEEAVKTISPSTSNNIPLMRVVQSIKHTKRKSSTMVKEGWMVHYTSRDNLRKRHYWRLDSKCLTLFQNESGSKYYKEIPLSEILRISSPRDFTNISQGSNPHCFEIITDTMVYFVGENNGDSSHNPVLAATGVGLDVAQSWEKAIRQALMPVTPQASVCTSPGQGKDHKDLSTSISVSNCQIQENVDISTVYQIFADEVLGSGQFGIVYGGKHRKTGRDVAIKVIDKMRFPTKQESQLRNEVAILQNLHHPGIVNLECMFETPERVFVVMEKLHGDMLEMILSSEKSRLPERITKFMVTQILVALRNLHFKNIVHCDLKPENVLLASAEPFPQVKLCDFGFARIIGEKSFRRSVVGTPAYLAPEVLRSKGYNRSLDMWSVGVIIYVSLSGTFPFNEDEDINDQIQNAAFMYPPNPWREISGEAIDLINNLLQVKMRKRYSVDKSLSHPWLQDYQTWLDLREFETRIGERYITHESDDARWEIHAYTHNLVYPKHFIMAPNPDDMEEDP

[13] = target: Protein kinase C theta type (Homo sapiens, UniProt Q04759); assay: Inhibition of PKCtheta (unknown origin) at 50 nM by Z'LYTE screening method relative to control
Chain of Protein kinase C theta type (Q04759 whole entry, looked up): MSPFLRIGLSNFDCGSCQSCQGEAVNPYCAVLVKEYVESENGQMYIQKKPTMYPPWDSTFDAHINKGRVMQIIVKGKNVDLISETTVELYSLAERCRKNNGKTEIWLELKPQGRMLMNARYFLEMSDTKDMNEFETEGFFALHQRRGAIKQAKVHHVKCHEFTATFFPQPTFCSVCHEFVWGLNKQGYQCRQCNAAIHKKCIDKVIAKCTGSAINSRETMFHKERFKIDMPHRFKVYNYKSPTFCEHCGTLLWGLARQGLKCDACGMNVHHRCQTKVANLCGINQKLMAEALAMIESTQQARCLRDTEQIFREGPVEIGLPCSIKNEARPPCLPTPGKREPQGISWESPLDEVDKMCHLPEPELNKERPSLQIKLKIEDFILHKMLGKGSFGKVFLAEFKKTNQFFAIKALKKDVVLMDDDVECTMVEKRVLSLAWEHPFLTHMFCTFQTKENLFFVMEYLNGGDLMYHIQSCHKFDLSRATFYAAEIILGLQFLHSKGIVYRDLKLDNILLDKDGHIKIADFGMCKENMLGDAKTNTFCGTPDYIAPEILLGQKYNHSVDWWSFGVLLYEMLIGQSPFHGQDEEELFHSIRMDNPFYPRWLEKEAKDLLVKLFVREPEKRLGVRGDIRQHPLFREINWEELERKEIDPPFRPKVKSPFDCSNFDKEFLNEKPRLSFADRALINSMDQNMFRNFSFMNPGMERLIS

4T1 = assay: Cytotoxicity against mouse 4T1 cells assessed as reduction in cell viability incubated for 96 hrs by MTT assay; format: functional, cell-based; details: 4T1, 96 h

Chain of RAC-alpha serine/threonine-protein kinase (Homo sapiens) (P31749 whole entry): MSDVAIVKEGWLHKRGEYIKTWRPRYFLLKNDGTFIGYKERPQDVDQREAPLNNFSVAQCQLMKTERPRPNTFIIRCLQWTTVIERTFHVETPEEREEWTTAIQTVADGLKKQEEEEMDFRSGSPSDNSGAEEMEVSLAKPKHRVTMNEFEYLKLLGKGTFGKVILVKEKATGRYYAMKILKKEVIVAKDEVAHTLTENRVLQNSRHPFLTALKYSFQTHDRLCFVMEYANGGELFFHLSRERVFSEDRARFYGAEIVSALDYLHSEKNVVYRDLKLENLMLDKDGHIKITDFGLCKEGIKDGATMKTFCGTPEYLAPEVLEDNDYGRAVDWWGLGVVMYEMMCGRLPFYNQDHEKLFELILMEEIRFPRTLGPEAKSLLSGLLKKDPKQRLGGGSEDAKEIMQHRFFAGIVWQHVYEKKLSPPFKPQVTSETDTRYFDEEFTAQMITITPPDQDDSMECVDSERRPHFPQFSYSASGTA

| SMILES | inhibition [1] [%] | inhibition [2] [%] | inhibition [3] [%] | inhibition [4] [%] | inhibition [5] [%] | inhibition [6] [%] | inhibition [7] [%] | inhibition [8] [%] | inhibition [9] [%] | inhibition [10] [%] | inhibition [11] [%] | inhibition [12] [%] | inhibition [13] [%] | IC50 (4T1) [µM] |
| --- | --- | --- | --- | --- | --- | --- | --- | --- | --- | --- | --- | --- | --- | --- |
| CCCNc1nc(-n2[se]c3ccccc3c2=O)nc2[nH]cnc12 | 2 | 0 | 4 | 1 | 0 | 0 | 0 | 2 | 1 | 95 | 0 | 0 | 25 | 11.3 |
| O=C1c2ccccc2CN1c1nc(N[C@H]2CC[Se]C2)c2nc[nH]c2n1 | 1 | 0 | 9 | 0 | 0 | 2 | 2 | 3 | 0 | 9 | 3 | 3 | 14 | 27.2 |
| O=c1c2ccccc2[se]n1-c1nc(NC2CCCCC2)c2nc[nH]c2n1 | 2 | 1 | 84 | 0 | 0 | 1 | 0 | 6 | 0 | 62 | 0 | 0 | 62 | 8.1 |
| O=c1c2ccccc2[se]n1-c1nc(N[C@H]2CC[Se]C2)c2nc[nH]c2n1 | 0 | 1 | 87 | 0 | 0 | 2 | 0 | 10 | 9 | 8 | 6 | 6 | 98 | 0.8 |
| O=c1c2ccccc2[se]n1-c1nc(N[C@H]2CCOC2)c2nc[nH]c2n1 | 1 | 8 | 71 | 0 | 0 | 2 | 1 | 2 | 2 | 7 | 3 | 3 | 85 | 1.8 |

Second part, led by results:

| inhibition [1] [%] | inhibition [2] [%] | inhibition [3] [%] | inhibition [4] [%] | inhibition [5] [%] | inhibition [6] [%] | inhibition [7] [%] | inhibition [8] [%] | inhibition [9] [%] | inhibition [10] [%] | inhibition [11] [%] | inhibition [12] [%] | inhibition [13] [%] | SMILES | IC50 (4T1) [µM] |
| --- | --- | --- | --- | --- | --- | --- | --- | --- | --- | --- | --- | --- | --- | --- |
| 1 | 1 | 1 | 0 | 0 | 2 | 2 | 1 | 0 | 9 | 4 | 4 | 7 | O=C1c2ccccc2CN1c1nc(NC2CCCC2)c2nc[nH]c2n1 | 16.7 |
| 2 | 1 | 3 | 0 | 0 | 1 | 0 | 5 | 2 | 25 | 2 | 2 | 12 | CCN(CC)CCCC(C)Nc1nc(N2Cc3ccccc3C2=O)nc2[nH]cnc12 (stereo not drawn) | 13.3 |
| 2 | 0 | 6 | 0 | 0 | 1 | 0 | 0 | 1 | 28 | 0 | 0 | 12 | O=c1c2ccccc2[se]n1-c1nc(Nc2ccccc2)c2nc[nH]c2n1 | 15.2 |
| 0 | 2 | 4 | 0 | 0 | 2 | 0 | 2 | 0 | 62 | 1 | 1 | 15 | O=c1c2ccccc2[se]n1-c1nc(N[C@@H]2C[C@H]3CC[C@@H]2C3)c2nc[nH]c2n1 | 31.8 |
| 2 | 0 | 4 | 0 | 0 | 1 | 0 | 4 | 2 | 5 | 0 | 0 | 0 | O=C1c2ccccc2CN1c1nc(NC2CCCCC2)c2nc[nH]c2n1 | 24.8 |
| 0 | 1 | 3 | 0 | 0 | 2 | 1 | 5 | 1 | 5 | 1 | 1 | 16 | C[C@@H]1[C@H]2C[C@@H](C[C@H]1Nc1nc(-n3[se]c4ccccc4c3=O)nc3[nH]cnc13)C2(C)C | 33.6 |
| 9 | 11 | 9 | 0 | 0 | 0 | 2 | 3 | 0 | 12 | 11 | 11 | 83 | CCN(CC)CCCC(C)Nc1nc(-n2[se]c3ccccc3c2=O)nc2[nH]cnc12 (stereo not drawn) | 15.2 |
